According to patent US8633314B2, “Forms of a multicyclic compound” (Cephalon, Inc., priority 2009, dated 2014):

Legend:
Format in all cases: physicochemical
[1] = Dynamic vapor sorption (DVS)
Description: Gravimetric vapor sorption experiments were carried out using the DVS-HT instrument (Surface Measurement Systems, London, UK). This instrument measures the uptake and loss of vapor gravimetrically using a recording ultra-microbalance with a mass resolution of ±0.1 μg. The vapor partial pressure (±1.0%) around the sample was controlled by mixing saturated and dry carrier gas streams using electronic mass flow controllers. The desired temperature was maintained at ±0.1° C.
The samples (10-25 mg) were placed into the DVS-HT instrument at the desired temperature. Two types of dynamic vapor sorption experiments were performed: • 1. The sample was initially dried in stream of dry air (<0.1% relative humidity (RH)) for 20 hours to establish a dry mass and exposed to two 0-90% RH cycles (in 10% RH increments). • 2. The sample was exposed at 90% RH for 20 hours and exposed to two 90-0% RH cycles (in 10% RH increments). Infrared Spectrometry (FTIR)

[2] = Thermodynamic solubility of monohydrate forms in organic solvents
Description: Experiments were set up to measure the thermodynamic solubility of these monohydrate forms at room temperature and 55° C. in ethyl acetate, MTBE and 1-pentanol.

[3] = Solid state stress stability (storage; XRPD and stability-indicating HPLC); conditions: 40° C./75% RH
Description: Typically 10 μL aliquots of the sample solutions were diluted to 1 mL with acetonitrile and the assay concentrations were determined from an average of duplicate injections using the following HPLC method. The purity and impurity analyses are done using conventional HPLC.
Crystallization studies were performed to investigate polymorphism in 48 different solvents. Solvents were selected on the basis of acceptability (ICH Class 3 and 2) and to give a range of dielectric constants, dipole moments and functional groups. Two starting materials were selected: Form A0 and Lot 7 (a mixture of Form A0, Form HC0 and Form HD0). When possible, full characterization was performed on the new forms that were generated during the polymorphism screening of Compound I. This characterization consisted of: XRPD, thermal analysis, DVS, storage at 40° C./75% RH and purity.
Stress stability studies were performed to get a timely impression of the influence of temperature and humidity on form stability. A stability-indicating HPLC assay method was developed for quantitation of Compound I and its major degradation product, 7-methoxy-1,2,3,11-tetrahydro-5,11-diaza-benzo[a]trindene-4,6-dione, previously referred to as “Compound E”.

[4] = Irregular DVS (90 to 0% RH), listed as HD0
[5] = Regular DVS (0 to 90% RH), listed as HD0

## COc1cccc2[nH]c3c4c(c5c(c3c12)C(=O)N(CN1CCN(C)CC1)C5=O)CCC4 [Form HD0, 4,5,6,7-tetrahydro-11-methoxy-2-[(4-methyl-1-piperazinyl)methyl]-1H-cyclopenta[a]pyrrolo[3,4-c]carbazole-1,3(2H)-dione]
[1]; Irregular DVS (90 to 0% RH)
  Total uptake at 90% RH: 0.8%
  changes by XRPD re-analysis after DVS: No significant changes
[1]; [4]
  At 75% RH uptake: 0.4%
  Total uptake at 90% RH: 0.8%
[1]; Regular DVS (0 to 90% RH)
  Total uptake at 90% RH: 0.6%
  changes by XRPD re-analysis after DVS: No significant changes
[1]; [5]
  At 75% RH uptake: 0.4%
  Total uptake at 90% RH: 0.6%
[2]; between room temperature and 55° C.
  relative thermodynamic stability in solution: more thermodynamically stable than Form HC0 and form HA0
[2]; ethyl acetate, MTBE, 1-pentanol, RT and 55° C.
  solubility relative to the other hydrated polymorph (Form HC0): always higher
[3]; 4 weeks
  Chemical Stability (HPLC (post 4 weeks at 40° C./75% RH (Area %))): 92.3 Area %
[3]; 0 days
  HPLC % Compound I: 93.5% Compound I,
  XRPD (form found): HD0
[3]; 7 days
  HPLC % Compound I: 92.2% Compound I,
  XRPD (form found): HD0
[3]; 13 days
  HPLC % Compound I: 92.3% Compound I,
  XRPD (form found): HD0
[3]; 28 days
  HPLC % Compound I: 92.3% Compound I,
  XRPD (form found): HD0
